Laboratory results: patent publication US20240139326A1, “METHACRYLAMIDES PROTEIN BINDERS AND USES THEREOF” (YEDA RESEARCH AND DEVELOPMENT CO. LTD., priority 2020, published 2024)
Read-outs that look alike come from different tables or passages of the source.

How the values were obtained:
BTK kinase domain [1] = biological target: T1, BTK kinase domain (Homo sapiens (Human), UniProt Q06187)
Protocol: (§2) The reaction mixtures, at room temperature for various times, were injected into the LC/MS. For data analysis, the raw spectra were deconvoluted using a 20000:40000 Da window and 1 Da resolution. The signal from masses 20000:30000 and 33000:40000 (which contained no peaks) was averaged and subtracted from the whole signal.

Mino cells = test: In-gel fluorescence proteomic reactivity of alkyne probes; type: cell-based; conditions: Mino cells treated 2 h, clicked with TAMRA-azide
Protocol: The samples were incubated at 25 degrees for 2 hours.
Mino cells were treated for two hours with either DMSO, IA-alkyne, or 2a-c. The cells were lysed, labeled the alkynes via copper-catalyzed “click chemistry” with TAMRA (Tetramethylrhodamine)-azide, and imaged the adducts via in-gel fluorescence (FIG. 8B). […] This may be the result of cellular esterases that hydrolyze the ester, leaving an unreactive substituted acrylamide^26. All of the acrylamides were markedly less reactive than IA-alkyne.

[2] = biological target: SARS-CoV-2 papain like protease (PL^pro) (Severe acute respiratory syndrome coronavirus 2 (2019-nCoV) (SARS-CoV-2), UniProt P0DTD1); test: Labeling of PLpro (LC/MS); type: binding; conditions: 2 μM protein, 16h, pH 8
BTK [3] = biological target: T2, BTK (Homo sapiens (Human), UniProt Q06187); test: Fluorescence intensity measurement of CoLDR turn-on probe with BTK; type: binding; conditions: 2 μM probe, 2 μM BTK
Protocol: (§1) Each condition was in triplicates in 20 mM Tris pH 8 50 mM NaCl for BTK and K-RAS^G12c, in 50 mM Tris pH 8.0, 100 mM NaCl for EGFR. fluorescent measurements were taken every 2 minutes for 2 hours for BTK and EGFR and every 10 minutes for 15 hours for K-RAS^G12c. […] K-Ras^G12C was expressed and purified as previously described^66, EGFR kinase domain was a generous gift from Prof. Michael Eck.
The fact that a specific leaving group is released as a function of selective binding of a target protein can be used to functionalize irreversible inhibitors, for example as turn-on fluorescent probes. To assess the applicability and generality of this approach three therapeutic targets were chosen for which acrylamide inhibitors are available: BTK, EGFR, and K-RAS^G12C as model systems. […] The rate of the reaction was […] by using 20:1 equivalents of protein:probe (FIG. 12). […] The release can also be inhibited by pre-incubation of BTK with Iodoacetamide alkyne (IAA; FIG. 13B).

BSA = BSA (Bos taurus (Bovine), UniProt P02769); test: Turn-on fluorescence selectivity control with BSA; type: binding; conditions: 10 μM BSA with 2 μM 3j
BTK kinase domain [4] = biological target: T1, BTK kinase domain; test: Kinetic labeling experiments of Ibrutinib derivatives with BTK (intact protein LC/MS); conditions: for labeling of BTK through the substitution mechanism: within 30 minutes; for BTK Substitution/Addition: mechanism of BTK labeling
Protocol: as §2

wild-type BTK = wild-type BTK (Homo sapiens (Human), UniProt Q06187); test: In vitro kinase activity assay for BTK (Nanosyn); type: biochemical
Protocol: The reaction was initiated by 2-fold dilution into a solution containing 5 μM ATP and substrate.

BTK [5] = biological target: T2, BTK; test: Turn-on chemiluminescence of probe 3k with BTK; type: binding
Protocol: Plate reader measurements were performed on Tecan Spark Control 10M fluorescent measurements using black 384 well plates with clear bottom.
Recently, adamantylidene-dioxetane based chemiluminescent turn-on probes for the sensing and imaging of enzymes, reactive oxygen species, and other analytes were reported^28-32 These probes, upon activation by analytes, release a phenolate-dioxetane intermediate which subsequently decomposes with the emission of a photon in the visible spectrum (FIG. 3). […] The chemiluminescence light emission profile of probe 3k (FIG. 15A, Example 1) upon activation with BTK (2 μM) was measured in the absence and presence of BTK (FIG. 15B). The kinetic profile in the presence of BTK was typical of a chemiluminescent probe with an initial signal was increased to a maximum within 20 minutes, followed by a slow decrease.

BTK [6] = biological target: T2, BTK; test: Fluorescence intensity measurements of labeling probes with BTK; conditions: 4 μM competitor
EGFR [7] = biological target: T3, EGFR (Homo sapiens (Human), UniProt P00533); test: Fluorescence intensity measurement of CoLDR turn-on probe with EGFR; type: binding; conditions: 2 μM each
Protocol: as §1
Similarly, 4b (FIG. 11B, Example 1; afatinib derivative functionalized with coumarin) and 5a (FIG. 11C, Example 1; AMG-510 derivative functionalized with coumarin) were treated with EGFR and K-RAS^G12c respectively and measured the released coumarin fluorescence (FIG. 11E, 11F).

EGFR [8] = biological target: T3, EGFR; test: EGFR kinase activity assay; type: biochemical; conditions: read-out: IC50 against EGFR
BTK kinase domain [9] = biological target: T1, BTK kinase domain; test: Labeling experiments of Ibrutinib derivatives with BTK (ligand release, LC/MS); type: binding; conditions: BTK 2 μM, 10 min, 25° C., pH 8
Protocol: Binding experiments were performed in Tris 20 mM pH 8.0, 50 mM NaCl at room temperature. […] The reaction mixtures, at room temperature for various times, were injected into the LC/MS. For data analysis, the raw spectra were deconvoluted using a 20000:40000 Da window and 1 Da resolution. The labeling percentage for a compound was determined as the labeling of a specific compound (alone or together with other compounds) divided by the overall detected protein species.
To assess irreversible labeling and validate the proposed ligand release mechanism, the probes/compounds (2 μM) were incubated with recombinant BTK (2 μM) and monitored the reaction via intact protein liquid chromatography/mass spectrometry (LC/MS).

physchem = conditions: 5 mM GSH in potassium phosphate buffer, pH 8

T2 sequence (Q06187 2-659 limits assumed): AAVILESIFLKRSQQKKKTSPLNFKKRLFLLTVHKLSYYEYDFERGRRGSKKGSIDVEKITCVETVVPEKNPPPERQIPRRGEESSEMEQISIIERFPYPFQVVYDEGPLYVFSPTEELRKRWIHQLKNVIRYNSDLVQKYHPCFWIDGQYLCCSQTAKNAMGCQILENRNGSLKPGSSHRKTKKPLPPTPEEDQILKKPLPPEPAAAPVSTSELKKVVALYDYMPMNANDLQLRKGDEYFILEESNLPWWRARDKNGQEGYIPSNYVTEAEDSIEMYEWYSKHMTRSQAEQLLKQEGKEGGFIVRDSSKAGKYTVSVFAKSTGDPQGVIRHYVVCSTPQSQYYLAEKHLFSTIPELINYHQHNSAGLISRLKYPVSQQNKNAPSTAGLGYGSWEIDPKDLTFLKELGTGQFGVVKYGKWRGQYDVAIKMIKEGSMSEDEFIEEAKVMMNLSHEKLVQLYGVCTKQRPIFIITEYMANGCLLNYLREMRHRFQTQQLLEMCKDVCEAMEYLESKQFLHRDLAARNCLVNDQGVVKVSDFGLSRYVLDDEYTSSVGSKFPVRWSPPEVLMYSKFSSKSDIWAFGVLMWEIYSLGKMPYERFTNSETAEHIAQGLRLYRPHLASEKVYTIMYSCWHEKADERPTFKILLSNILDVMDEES
Chain of wild-type BTK (Q06187 whole entry): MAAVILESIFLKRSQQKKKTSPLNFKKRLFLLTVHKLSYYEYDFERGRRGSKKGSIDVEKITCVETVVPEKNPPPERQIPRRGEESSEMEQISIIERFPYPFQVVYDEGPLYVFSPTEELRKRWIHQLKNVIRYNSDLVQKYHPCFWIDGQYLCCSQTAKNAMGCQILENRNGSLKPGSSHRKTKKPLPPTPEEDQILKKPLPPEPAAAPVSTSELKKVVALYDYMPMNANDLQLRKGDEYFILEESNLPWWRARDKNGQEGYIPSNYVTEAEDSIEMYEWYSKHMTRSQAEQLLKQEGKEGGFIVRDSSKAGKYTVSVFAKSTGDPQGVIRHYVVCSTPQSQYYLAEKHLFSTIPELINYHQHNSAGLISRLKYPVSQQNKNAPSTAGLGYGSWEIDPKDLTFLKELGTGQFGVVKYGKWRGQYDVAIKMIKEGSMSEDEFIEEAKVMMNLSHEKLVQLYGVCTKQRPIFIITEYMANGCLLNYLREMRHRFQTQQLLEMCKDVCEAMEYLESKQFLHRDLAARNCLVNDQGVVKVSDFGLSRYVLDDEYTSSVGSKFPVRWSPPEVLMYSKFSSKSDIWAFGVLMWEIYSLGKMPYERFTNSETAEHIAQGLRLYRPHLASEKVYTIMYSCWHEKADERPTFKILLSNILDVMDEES
T1 sequence (Q06187 402-655): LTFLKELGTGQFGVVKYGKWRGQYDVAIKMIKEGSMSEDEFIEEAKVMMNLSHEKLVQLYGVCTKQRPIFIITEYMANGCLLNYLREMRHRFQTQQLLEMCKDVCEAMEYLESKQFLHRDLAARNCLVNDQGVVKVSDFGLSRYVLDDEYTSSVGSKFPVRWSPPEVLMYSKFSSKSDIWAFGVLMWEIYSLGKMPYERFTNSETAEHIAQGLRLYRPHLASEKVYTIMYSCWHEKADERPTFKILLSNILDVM
T3 sequence (P00533 25-1210 limits assumed): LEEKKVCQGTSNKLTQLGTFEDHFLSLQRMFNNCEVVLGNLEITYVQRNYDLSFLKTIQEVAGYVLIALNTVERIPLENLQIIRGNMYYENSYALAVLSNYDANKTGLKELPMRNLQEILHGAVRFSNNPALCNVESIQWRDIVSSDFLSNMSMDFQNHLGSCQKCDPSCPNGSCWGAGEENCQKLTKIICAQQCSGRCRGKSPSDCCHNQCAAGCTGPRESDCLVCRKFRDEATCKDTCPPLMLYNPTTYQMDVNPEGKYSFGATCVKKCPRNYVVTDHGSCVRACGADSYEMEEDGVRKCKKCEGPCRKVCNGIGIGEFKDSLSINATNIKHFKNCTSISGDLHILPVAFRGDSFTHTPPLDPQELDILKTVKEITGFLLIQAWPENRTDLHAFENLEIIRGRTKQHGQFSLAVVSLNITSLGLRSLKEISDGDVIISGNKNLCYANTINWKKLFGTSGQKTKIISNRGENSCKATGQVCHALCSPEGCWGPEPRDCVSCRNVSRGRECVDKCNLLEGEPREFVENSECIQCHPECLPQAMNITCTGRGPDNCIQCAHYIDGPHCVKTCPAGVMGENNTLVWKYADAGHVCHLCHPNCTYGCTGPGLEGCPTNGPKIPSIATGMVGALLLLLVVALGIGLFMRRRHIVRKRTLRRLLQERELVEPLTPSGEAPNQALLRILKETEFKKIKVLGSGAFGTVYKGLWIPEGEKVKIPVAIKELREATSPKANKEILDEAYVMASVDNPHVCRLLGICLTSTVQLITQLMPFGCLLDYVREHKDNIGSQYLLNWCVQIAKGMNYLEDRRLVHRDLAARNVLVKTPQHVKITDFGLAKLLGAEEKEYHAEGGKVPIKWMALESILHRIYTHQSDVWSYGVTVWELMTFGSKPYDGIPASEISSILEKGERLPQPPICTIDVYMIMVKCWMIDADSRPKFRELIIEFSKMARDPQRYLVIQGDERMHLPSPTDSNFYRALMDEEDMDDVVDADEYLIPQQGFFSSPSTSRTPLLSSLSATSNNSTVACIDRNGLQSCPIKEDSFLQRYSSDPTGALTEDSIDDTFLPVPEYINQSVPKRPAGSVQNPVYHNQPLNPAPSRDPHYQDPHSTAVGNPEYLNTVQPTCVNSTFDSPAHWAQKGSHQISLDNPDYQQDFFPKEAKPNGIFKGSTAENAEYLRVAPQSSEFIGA
Chain of BSA (P02769 25-607 limits assumed): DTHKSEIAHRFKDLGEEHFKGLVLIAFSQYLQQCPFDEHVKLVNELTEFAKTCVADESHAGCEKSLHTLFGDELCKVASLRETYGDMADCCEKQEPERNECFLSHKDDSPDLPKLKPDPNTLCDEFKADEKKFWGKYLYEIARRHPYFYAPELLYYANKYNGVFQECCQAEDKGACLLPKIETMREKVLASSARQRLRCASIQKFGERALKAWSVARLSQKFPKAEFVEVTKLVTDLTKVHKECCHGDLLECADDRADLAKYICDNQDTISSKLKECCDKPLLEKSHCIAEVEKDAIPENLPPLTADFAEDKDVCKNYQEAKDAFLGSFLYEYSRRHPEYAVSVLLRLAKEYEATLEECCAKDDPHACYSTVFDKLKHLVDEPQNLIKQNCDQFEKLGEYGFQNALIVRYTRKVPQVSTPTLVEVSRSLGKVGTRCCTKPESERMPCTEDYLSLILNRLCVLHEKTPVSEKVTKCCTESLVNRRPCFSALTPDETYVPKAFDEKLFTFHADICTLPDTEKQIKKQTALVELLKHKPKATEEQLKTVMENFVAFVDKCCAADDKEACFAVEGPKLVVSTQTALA

In the case of `C=C(C)C(=O)N1CCC[C@@H](n2nc(-c3ccc(Oc4ccccc4)cc3)c3c(N)ncnc32)C1` [Compound 3a, (R)-1-(3-(4-amino-3-(4-phenoxyphenyl)-1H-pyrazolo[3,4-d]pyrimidin-1-yl)piperidin-1-yl)-2-methylprop-2-en-1-one], the “BHK t1/2” value (BTK kinase domain [1]) is reported as >420 min.

In the case of `C#CCCNC(=O)C(=C)COC(=O)c1ccccc1` [Compound 2c, 2-(but-3-yn-1-ylcarbamoyl)allyl benzoate], the “proteomic reactivity (in-gel fluorescence)” value (Mino cells) is reported as “completely inactive”.

In the case of `C=C(COC(=O)c1cc(OC)c(OC)c(OC)c1)C(=O)OCC` [Compound 7t], the “single labeling of PL^pro” value [2] is reported as 100%.

With `C=C(COc1ccc2ccc(=O)oc2c1)C(=O)N1CCC[C@@H](n2nc(-c3ccc(Oc4ccccc4)cc3)c3c(N)ncnc32)C1` [Compound 3j, (R)-7-((2-(3-(4-amino-3-(4-phenoxyphenyl)-1H-pyrazolo[3,4-d]pyrimidin-1-yl)piperidine-1-carbonyl)allyl)oxy)-2H-chromen-2-one] the “increase of fluorescence intensity at 435 nm upon addition of BTK” value (BTK [3]) was 30 fold, the “time to fluorescence saturation” value (BTK [3]) was ≤ 10 min and the “fluorescence on incubation with BSA” value (BSA) was “did not result in increased fluorescence”. For the same molecule, the “labeling of BTK through the substitution mechanism” value (BTK kinase domain [4]) was 100%.

For `C=C(CN(C)c1ccccc1)C(=O)N1CCC[C@@H](n2nc(-c3ccc(Oc4ccccc4)cc3)c3c(N)ncnc32)C1` [Compound 3d, (R)-1-(3-(4-amino-3-(4-phenoxyphenyl)-1H-pyrazolo[3,4-d]pyrimidin-1-yl)piperidin-1-yl)-2-((methyl(phenyl)amino)methyl)prop-2-en-1-one], the IC50 (wild-type BTK; 0.6 nM BTK, 5 μM ATP) was 0.0056 µM, the “BHK t1/2” value (BTK kinase domain [4]; BTK labeling, 2 μM compound and 2 μM BTK at room temperature) was 47 min and the “BTK Substitution/Addition” value (BTK kinase domain [4]) was “Substitution”. The “labeling of BTK through the substitution mechanism” value (BTK kinase domain [4]) was 100%.

In the case of `Nc1ncnc2c1c(-c1ccc(Oc3ccccc3)cc1)nn2[C@@H]1CCCNC1` [Ibr-H, reference compound], the “3k luminescence after pre-incubation of BTK with competitor” value (BTK [5]; 2 μM, 0.5 h pre-incubation) is reported as “significant decrease in the luminescence detected” and the “7m turn-on fluorescence after pre-incubation of BTK with competitor” value (BTK [6]) is reported as “eliminated the fluorescence”.

For `C=C(COc1ccc2ccc(=O)oc2c1)C(=O)Nc1cc2c(Nc3ccc(F)c(Cl)c3)ncnc2cc1OC` [Compound 4b, N-(4-((3-chloro-4-fluorophenyl)amino)-7-methoxyquinazolin-6-yl)-2-(((2-oxo-2H-chromen-7-yl)oxy)methyl)acrylamide], the “released coumarin fluorescence with EGFR” value (EGFR [7]) was “significant increase in fluorescence intensity” and the IC50 (EGFR [8]) was 3.3 nM.

In the case of `C#CCCNC(=O)C(=C)CN1CCC(CNc2ncnc(N)c2-c2ccc(Oc3ccccc3)cc2)CC1` [Compound 7g], the “single labeling of BTK” value (BTK kinase domain [9]) is reported as 100%.

For `C=C(CNCc1ccccc1)C(=O)N1CCC[C@@H](n2nc(-c3ccc(Oc4ccccc4)cc3)c3c(N)ncnc32)C1` [Compound 3e, (R)-1-(3-(4-amino-3-(4-phenoxyphenyl)-1H-pyrazolo[3,4-d]pyrimidin-1-yl)piperidin-1-yl)-2-((benzylamino)methyl)prop-2-en-1-one], the IC50 (wild-type BTK; 0.6 nM BTK, 5 μM ATP) was 0.0001 µM, the IC50 (wild-type BTK; unit μM) was < 100 µM and the “BHK t1/2” value (BTK kinase domain [1]; recombinant enzyme) was <5 min. For the same molecule, the “BTK Substitution/Addition” value (BTK kinase domain [4]) was “exclusively through addition” and the “BTK labeling t1/2 faster than Ibrutinib” value (BTK kinase domain [4]; relative to Ibrutinib) was 50%.

With `C=C(CN1CCCCC1)C(=O)N1CCC[C@@H](n2nc(-c3ccc(Oc4ccccc4)cc3)c3c(N)ncnc32)C1` [Compound 3c, (R)-1-(3-(4-amino-3-(4-phenoxyphenyl)-1H-pyrazolo[3,4-d]pyrimidin-1-yl)piperidin-1-yl)-2-(piperidin-1-ylmethyl)prop-2-en-1-one] the IC50 (wild-type BTK; 0.6 nM BTK, 5 μM ATP) was 0.0001 µM, the IC50 (wild-type BTK; unit μM) was < 100 µM and the “BTK Substitution/Addition” value (BTK kinase domain [4]) was “exclusively through addition”.

For `C#CCCNC(=O)C(=C)COc1ccc2ccc(=O)oc2c1` [Compound 2a, N-(but-3-yn-1-yl)-2-(((2-oxo-2H-chromen-7-yl)oxy)methyl)acrylamide], the “proteomic reactivity (in-gel fluorescence)” value (Mino cells) was “slightly higher reactivity than 2b”.

For `C=C(COC(C)=O)C(=O)N1CCC[C@@H](n2nc(-c3ccc(Oc4ccccc4)cc3)c3c(N)ncnc32)C1` [Compound 3g, (R)-2-(3-(4-amino-3-(4-phenoxyphenyl)-1H-pyrazolo[3,4-d]pyrimidin-1-yl)piperidine-1-carbonyl)allyl acetate], the IC50 (wild-type BTK; 0.6 nM BTK, 5 μM ATP) was 0.0001 µM, the IC50 (wild-type BTK; unit μM) was < 100 µM and the “BTK Substitution/Addition” value (BTK kinase domain [4]) was “Substitution”. For the same molecule, the “labeling of BTK through the substitution mechanism” value (BTK kinase domain [4]) was 100%.

For `C=C(COC(=O)Oc1ccc([N+](=O)[O-])cc1)C(=O)NCc1ccccc1` [Compound 1j, 2-(benzylcarbamoyl)allyl (4-nitrophenyl) carbonate], the half-life at 100 μM (physchem) was 54 min.

With `C=C(COc1c(Cl)cc(C2(OC)OOC23[C@H]2C[C@@H]4C[C@@H](C[C@H]3C4)C2)cc1/C=C/C(=O)OC)C(=O)N1CCC[C@@H](n2nc(-c3ccc(Oc4ccccc4)cc3)c3c(N)ncnc32)C1` (stereo partly drawn) [Compound 3k, Methyl (E)-3-(2-((2-((R)-3-(4-amino-3-(4-phenoxyphenyl)-1H-pyrazolo[3,4-d]pyrimidin-1-yl)piperidine-1-carbonyl)allyl)oxy)-3-chloro-5-((1r,3r,5R,7R)-4′-methoxyspiro[adamantane-2,3′-[1,2]dioxetan]-4′-yl)phenyl)acrylate] the “time to maximum chemiluminescence signal” value (BTK [5]; BTK 2 μM) was ≤ 20 min.
